{
  "source": "patent US20140230091A1",
  "about": "“MODIFIED PLANTS WITH INCREASED OIL CONTENT” (BROOKHAVEN SCIENCE ASSOCIATES, LLC, priority 2011, published 2014)",
  "test_system": "genes encoding plastidic ACCase subunits",
  "assay": "qPCR analysis of genes encoding plastidic ACCase subunits",
  "type": "cell-based, Brassica napus",
  "details": "10 mM Tween-80, three hour treatment; mean of three repeats ± SE; 0 mM = 1",
  "protocol": "RNA was isolated from cultured cells using Trizol Reagent (Invitrogen, Carlsbad, Calif., USA) and was treated with DNase. cDNA was synthesized from 1 μg of total RNA using the Bio-Rad (Hercules, Calif., USA) iScript cDNA synthesis kit. qPCR was performed with 1:50 of the cDNA product and SSO Fast EvaGreen supermix (Bio-Rad). Reference genes were ACT7 and UBC21 using primers as described previously (Chen et al. 2010 Anal Biochem, 405, 138-140). Primers for experimental genes were as follows: BC, biotin carboxylase (GenBank:A Y034410.1), F-[…] (SEQ ID No. 28) and R-[…] (SEQ ID No. 29); BCCP, biotin carboxyl carrier protein (GenBank: X90730.1), F-[…] (SEQ ID No. 30), R-[…] (SEQ ID No. 31); CT-α, carboxytransferase-α (GenBank GQ341624.1), F-[…] (SEQ ID No. 32), R-[…] (SEQ ID No. 33); CT-β, carboxytransferase-β (GenBank: Z50868.1), F-[…] (SEQ ID No. 34), R-[…] (SEQ ID No. 35). Relative expression level was calculated using REST software (Qiagen, Valencia, Calif., USA).\nGene expression analysis and enzyme assays were performed to better understand the apparent reduction in ACCase activity during Tween-80 feeding. Quantitative real-time PCR was used to measure the expression of genes encoding plastidic ACCase subunits. The specific genes selected for analysis were those originally identified as being embryo expressed in Brassica napus plants (Elborough et al. 1996, Biochemical Journal, 315, 103-112). […] Desalted extracts gave the same result. […] If dephosphorylation is involved in feedback, then treatment with phosphatase would be expected to reduce ACCase activity from inhibited cells to a lesser extent than from the control. If PII interaction is involved, then it is possible that incubation in the presence of 2-oxoglutarate would […] ACCase from a Tween-fed extract more than the control.",
  "data": [
    {"substance": "Tween-80", "values": [
      {"measurement": "Relative gene expression BC", "value": "0.91 ± 0.17"},
      {"measurement": "Relative gene expression BCCP", "value": "1.32 ± 0.58"},
      {"measurement": "Relative gene expression CT-α", "value": "1.02 ± 0.33"},
      {"measurement": "Relative gene expression CT-β", "value": "1.18 ± 0.29"}
    ]}
  ]
}
